From patent US7772197B2, “1,3,5-triazines for treatment of viral diseases” (1,3,5-Triazines for Treatment of Viral Diseases, priority 2002, dated 2010)
Read-outs that look alike come from different tables or passages of the source.

Experiments:
HIV-1 LAI = assay: Treatment of HIV-1-infected MT-2 cells with nucleoside analogues, p24 ELISA; type: cell-based
Experimental: The strains of HIV-1 used for primary drug screening are HIV-1 LAI or the appropriate strain of NRTI resistant HIV for studies of cross-resistance. Virus was propagated on MT-2 cells at an multiplicity of infection (MOI) of 0.01 to generate virus stocks. Briefly, the MT-2 cells were suspended in RPMI 1640 media supplemented with 10% fetal bovine serum, streptomycin and penicillin (cRPMI) and grown in a 37° C. incubator containing 5% CO2. Serial dilution of the virus and infection of MT-2 cells were followed by an ELISA detecting the capsid protein of HIV-1 (p24) and used to determine the titer of the virus stocks (50% tissue culture infectious dose (TCID50)). The ELISA was performed according to the manufacturer's instructions. The MT-2 cells are also used for visualizing the cytopathic effects of HIV-1 growth (e.g. syncytia formation).
0.1 ml of a 3×10^5 cells/ml MT-2 cell suspension were seeded in 96-well plates at 3×10^4 cells/well. The compounds to be assayed were diluted in a separate 96-well at ten times (10×) the concentration needed for the screen. 22 μl of the 10× compounds was then added to the wells in triplicate except for six control wells, containing uninfected MT-2 cells alone (3 wells) and untreated HIV-infected MT-2 cells (3 wells). This was followed by the addition of HIV-1 at an MOI of 0.01, except for the three wells serving as the uninfected control. 0.1 ml of cRPMI was added to the uninfected well instead of virus. After the addition of virus, the 96-well plate was centrifuged at 1,200×g for two hours to enhance the adsorption of the virus by the MT-2 cells (see, e.g., O'Doherty, J. Virol. 74:10074-10080 (2000)). After the centrifugation step, the 96-well plate was then incubated in a 37° C. incubator containing 5% CO2 for three days. At the end of this time period the virus and cells were mixed by gentle pipetting followed by a 1 minute spin at 600×g to pellet the cells. The supernatant of each well was then serially diluted 1,000-fold into new 96-well plates to serve as inoculum for the next passage and assayed by ELISA for the amount of p24 produced. The next passage was performed as described above, except that the virus used to infect the cells was derived from the 1,000-fold dilution plate. To generate an EC50 value, half-log concentrations of mutagenic nucleoside or nucleotide analogue capable of eradicating virus in a single passage are tested as above to generate a dose-response curve.

[1] = Pharmacokinetics of DHAdC base and DHAdC-palmitate in rats; type: in vivo; conditions: rat, plasma, IV
[2] = test system: reverse transcriptase of HIV NL4-3; assay: DHAdC viral mutagenicity, sense strand of RT fragment; type: cell-based; conditions: 50 μM
Experimental: The viral genomic DNA from cells treated with the deoxyribonucleoside analog 5-aza-dC (30 μM) was purified using a Qiagen DNeasy® Kit. 1 μg of genomic DNA was used to amplify a 1 kb region of the HIV-1 RT proviral DNA by PCR. The PCR product was then cloned into a TOPO® cloning vector. A Millipore Miniprep Kit was used to purify plasmid containing proviral inserts. About 45 positive clones were sequenced in both directions by a Beckman Coulter CEQ 8000. The sequencing results were analyzed and assembled using the DNASTAR Stagman program. Each mutated base was counted and the mutation rate was calculated over the total number of sequenced nucleotides.
Assessment of DHAdC viral mutagenicity was carried out as described above for 5-aza-dC. Mutagenesis of the sense strand of a 0.9 kb fragment of reverse transcriptase of HIV NL4-3 was determined after a single passage in SN1212 (50 μM) and compared to an untreated control.

mitochondrial DNA = assay: Mitochondrial toxicity (lactate production, mitochondrial DNA); type: cell-based; conditions: highest dose tested, 320 μM, data not shown
Experimental: Mitochondrial toxicity is also a safety concern with nucleoside analogs. SN1212 was also analyzed for mitochondrial toxicity. […] (Data not shown.)

HIV = HIV infected SCID-Hu mice; type: in vivo
Experimental: After completion of this toxicology experiment, SN1212 was tested in HIV infected SCID-Hu mice. […] The discordance between viral infectivity and conventional surrogate markers of viral load, such as p24 or HIV RNA, is not surprising, as it has also been observed in vitro, and reflects the increased proportion of non-infectious viral particles in the presence of SN1212. It is also interesting to note that, of the treated groups, the immunologic profile of the SN1212 groups most closely resemble that of the uninfected group. This is compatible with the finding that infection with less “fit” viruses provides a relative clinical benefit by preserving cellular immunity.

With `NC1=NC(=O)N([C@H]2C[C@H](O)[C@@H](CO)O2)CN1` [DHAdC, 1-(2-Deoxy-β-D-ribofuranosyl)-4-amino-1,2,5,6-tetrahydro-1,3,5-triazin-2-one] as the compound, how does the EC50 (HIV-1 LAI; Human immunodeficiency virus 1, MT2, read-out: EC50 against HIV, against HIV, strain not stated, 'in the range of') read?
Its EC50 is ~0.01 µM.

What about the EC50 (HIV-1 LAI; Human immunodeficiency virus 1, MT2, wild-type HIV strain LAI, MT-2 cells) of the same compound?
The EC50 was 3 µM.

What about the AUC(0-inf) [1] of the same compound?
The AUC(0-inf) was 75000 ng·h/mL.

What about the “C⇄T transitions, fold enhancement” value [2] of the same compound?
The value was 4.6 fold.

And the “mutation rate in HIV RT, fold higher than control” value [2]?
The value was 1.4 fold.

And the “A→C C→A mutations” value ([2]; number of mutations)?
Its value is 1.

What about the “A→T T→A mutations” value ([2]; number of mutations) of the same compound?
Its value is 1.

What about the “G→A A→G mutations” value ([2]; number of mutations) of the same compound?
Its value is 17.

What about the “G→C C→G mutations” value ([2]; number of mutations) of the same compound?
The value was 3.

What about the “G→T T→G mutations” value ([2]; number of mutations) of the same compound?
The value was 3.

What about the “T→C C→T mutations” value ([2]; number of mutations) of the same compound?
The value was 12.

And the mutation rate % ([2]; single passage)?
The mutation rate % was 0.015%.

And the “mutation rate in HIV RT” value ([2]; treated, control 0.0011)?
Its value is 0.0015.

And the “mitochondrial toxicity (increase in lactate production or inhibition of mitochondrial DNA)” value (mitochondrial DNA)?
The value was “does not demonstrate evidence of mitochondrial toxicity”.

And the “CD4+” value (HIV; 10 mg/kg/day)?
Its value is 13%.

And the “CD4+ CD8+” value (HIV; 10 mg/kg/day)?
Its value is 70%.

And the “CD8+” value (HIV; 10 mg/kg/day)?
Its value is 9.5%.

What about the “HIV-1 RNA” value (HIV; 10 mg/kg/day) of the same compound?
Its value is 5.3 log copies/10^6 cells.

What about the p24 (HIV; 10 mg/kg/day) of the same compound?
The p24 was 510 pg/10^6 cells.

And the Viral liter (HIV; 10 mg/kg/day, ** p < 0.05)?
Its Viral liter is 15.2** viruses/10^6 cells.

And the “CD4+” value (HIV; 100 mg/kg/day)?
The value was 10%.

What about the “CD4+ CD8+” value (HIV; 100 mg/kg/day) of the same compound?
Its value is 63%.

What about the “CD8+” value (HIV; 100 mg/kg/day) of the same compound?
The value was 11%.

And the “HIV-1 RNA” value (HIV; 100 mg/kg/day)?
Its value is 5.1 log copies/10^6 cells.

And the Viral liter (HIV; 100 mg/kg/day)?
Its Viral liter is 24.9 viruses/10^6 cells.

And the p24 (HIV; 100 mg/kg/day)?
The p24 was 570 pg/10^6 cells.
